Source: ChEMBL document CHEMBL3301451, “MMV Malaria Box gametocyte functional viability assay screening”

Assays:
Format in all cases: functional
Parameters in all cases: concentration or dose not given beside the values
Plasmodium berghei = test: MMV: P. berghei-infected blood was withdrawn from mice by cardiac pucture before being immediately added to ookinete culture medium containing test compounds. 26 hr later, GFP-positive ookinetes were identified and counted by automated microscopy. All compounds were tested in 4 independent experiments and data presented here is the mean.
Plasmodium falciparum [1] = test: (§1) MMV: P. falciparum NF54 functionally mature Stage V gametocytes were incubated for 24 hr in the presence of the test compounds. Gamete formation was then triggered by addition of 2uM xantheurenic acid and temperature decrease to ~20C. Male gamete exflagellation was recorded and analysed by automated microscopy after 20 min. All compounds were tested in 4 independent experiments and data presented here is the mean.
Plasmodium falciparum [2] = test: as §1, with “Female” for “Male”, “formation” for “exflagellation”, “24 hr later” for “and analysed”, “detection of surface labelling of female gametes with a Cy3-conjugated antibody reactive to Pfs25.” for “after 20 min.”; details: NF54, 24 h

| SMILES | inhibition (Plasmodium berghei) [%] | inhibition (Plasmodium falciparum [1]) [%] | inhibition (Plasmodium falciparum [2]) [%] |
| --- | --- | --- | --- |
| CCCCCCOC(=O)C1=C(C)NC(=O)NC1c1ccccc1F (centres undefined) | -7.086 | 11.4 | -1.36 |
| CN1CCN(c2c3c(c(C#N)c4nc5ccccc5n24)CCC3)CC1 | 0.2959 | 16.1 | -10.7 |
| CCOC(=O)c1c(C)n(-c2ccccc2)c2ccc(OC(=O)c3cc(OC)c(OC)c(OC)c3)cc12 | -17.17 | 18.3 | -31.5 |
| CCOc1cccc2sc(N(Cc3cccnc3)C(=O)C3CCCCC3)nc12 | -7.751 | -1.33 | -5.49 |
| CCN(CC)CCn1c(=N)n(CC(O)c2ccc(Cl)c(Cl)c2)c2ccccc21.Cl (centres undefined) | -13 | -66.5 | 7.92 |
| c1ccc2c(NCCc3c[nH]c4ccccc34)c3ccccc3nc2c1 | -6.399 | 5.59 | 2.57 |
| COc1cc(OC)c(N(C)C(=O)c2cc3c(s2)-c2ccccc2S(=O)(=O)C3)cc1Cl | -16.25 | 7.68 | -14.9 |
| COc1ccc(-c2cc3c(SCC(=O)Nc4cc(C(F)(F)F)ccc4Cl)nccn3n2)cc1 | -25.97 | 23.5 | -16.8 |
| O=c1nc(C=Cc2ccc(Br)cc2)oc2ccccc12 | 19.61 | 35.1 | 4.96 |
| COC(=O)c1ccc(C2C3=C(O)CC(c4ccc(F)cc4)CC3=Nc3ccccc3N2C(=O)c2ccccc2)cc1 (centres undefined) | -3.179 | -76.8 | -31.4 |
| COc1ccc(CCNC(=O)c2cc(S(=O)(=O)N3CC(C)CC(C)C3)ccc2Sc2ccc(F)cc2)cc1OC (centres undefined) | -21.03 | -26.1 | 4.07 |
| COc1cccc(C=Cc2nc(=O)c3ccccc3o2)c1OC | 98.18 | -2.89 | -15.1 |
| CCn1nc(-c2ccc(C(=O)OC)cc2)nc2c(=O)n(C)c(=O)nc1-2 | 17.71 | 25.3 | -15.8 |
| CC(C)(C)C(=O)Nc1ccc(C(=O)Nc2cccc(-c3nc4ccccc4[nH]3)c2)cc1 | 14.15 | 11 | -2.43 |
| CCOc1ccccc1CN1CCc2nc3cc(C(C)(C)C)nn3c(O)c2C1 | 19.57 | 3.23 | 5.87 |
| Cc1ccc(-c2cc3c(SCC(=O)Nc4cc(C(F)(F)F)ccc4Cl)nccn3n2)cc1 | -10.47 | 11.4 | 0.168 |
| COc1cc2c(cc1OC)C1=NNC(=O)C1=NC(C)(C)C2 | -11.77 | 52.9 | -26.2 |
| O=C1c2ccc3c4c(ccc(c24)C(=O)N1CCCCO)C(=O)N(CCCCO)C3=O | -0.9886 | -2.41 | -45.3 |
| Oc1c2c(nc3cc(-c4ccccc4)nn13)CCCC2 | 4.402 | 1.37 | -27.5 |
| N=c1n(CCN2CCCCC2)c2ccccc2n1CC(=O)c1ccc(Cl)c(Cl)c1 | -13.93 | -14.4 | -16.3 |
| CN1CCN(c2nc(Nc3ccc(O)cc3)nc3ccccc23)CC1.Cl | -15.95 | 2 | -25.1 |
| Oc1ccc(Cl)cc1CNc1nc2ccccc2[nH]1 | -5.247 | 53.3 | -26.8 |
| COc1ccc2nc(C)cc(Nc3cccc(O)c3)c2c1.Cl | -5.92 | -12.1 | -5.48 |
